From patent US12121515B2, “Piperidine urea derivatives as soluble epoxide hydrolase inhibitors” (NeuroPn Therapeutics, Inc., priority 2021, dated 2024)

Experiments:
[1] = tested on: MPTP induced toxicity on neuronal cells; experiment: MPTP induced Parkinsonism in zebrafish, brain pathology (degenerated neurons in mid brain smear); assay type: in vivo; details: H&E
Procedure: Fishes were conditioned to consume three pellets a day. […] To prepare fish feed pellets containing L-DOPA 4 μl of 1 ng/μl of L-DOPA stock solution was distributed across 3 fish feed pellets ‘1.3 μl/pellet. Fish were fed, three pellets a day. Concentration of compounds dosed was controlled by number of pellets and the quantity of compound per pellet. Feed pellets without drug but with vehicle were used as placebo or control.
Brain Pathology: Fish were anesthetized with 15° C. water and sacrificed by a cut between the brain and the spinal cord. Brain was dissected and portions of mid brain were removed with a pin and knife. The brain tissue was smeared on a glass slide and stained with Haematoxylin & Eosin respectively for 2 minutes each followed by water washes. Slides were viewed at 45× magnification using Labomed LX 400 microscope. The number of degenerated neurons were counted for three fields per smear. […]

[2] = tested on: MPTP induced Parkinsonism in zebrafish; experiment: MPTP induced Parkinsonism in zebrafish, locomotor activity; assay type: in vivo; details: adult zebrafish, MPTP model; oral in feed pellets; may reflect L-DOPA-induced dyskinesia; FIG. 4
Procedure: The methodology described by Bretaud et al (Neurotoxicol Teratol. 2004 November-December; 26(6), 857-64) was used to study parkinsonism in zebrafish. For MPTP (1-methyl-4-phenyl-1,2,3,6-tetrahydropyridine) induced Parkinsonism, adult zebrafish were injected with 3 μl of 60 μg/g of MPTP as intramuscular injection along the lateral muscles.
Compound B of Formula I or L-DOPA were dosed orally by mixing with the fish feed pellets. Fishes were conditioned to consume three pellets a day. To prepare feed containing 1 ng of Compound B of Formula I, stock of 1 ng/μl Compound B was diluted to 10 μl in Ringer's solution and distributed to 3 fish feed pellets (‘3.3 μl per pellet). Prior to adding Compound B, fish feed pellets were dried at 37° C. for 1 hour to remove moisture. Post addition of Compound B solution and absorption by the pellet, pellets were stored at 4° C. […] Concentration of compounds dosed was controlled by number of pellets and the quantity of compound per pellet. […]
Locomotor Activity: The observation tank was divided into four zones by drawing three vertical lines at equal distances, at a length of 6.25 cm per zone. The number of lines that adult zebrafish crossed over a period of 5 minutes was counted. Fishes were allowed to acclimatize in measurement tanks for a period of 30 minutes before readings were taken. […]

movement behavior on continued treatment (beyond day 3) [2]: heightened movement behavior
SMILES: N[C@@H](Cc1ccc(O)c(O)c1)C(=O)O [L-DOPA]
brain pathology (brain smear appearance, effect on MPTP induced toxicity on neuronal cells) ([1]; FIG. 5): did not have significant effect | change in neurodegenerative cell number compared to MPTP group ([1]; day 8, FIG. 5): non-significant decrease
